Experimental findings from US8309790B2, “Animal models for demyelination disorders” (University of Chicago, priority 2005, dated 2012) are described below.

The data set deals with CNS of 14-day-old double transgenic mice. Description: Ectopic expression of IFN-γ in the CNS during development (released from doxycycline at E14), PERK+/+ or PERK+/− background. The class given is in vivo. From the text:
To study the effect of INF-γ on the myelination of oligodendrocytes during mouse development, transgenic mice that allow for temporally regulated delivery of IFN-γ to the CNS using the tetracycline (tet) controllable system (Lin, et al. (2004) J. Neurosci. 24: 10074-10083) were generated. To drive tTA expression in astrocytes, the transcriptional regulatory region of the glial fibrillary acidic protein (GFAP) gene was chosen (Brenner, et al. (1994) J. Neurosci. 14: 1030-1037). GFAP/tTA mice were mated with TRE/IFN-γ mice to produce animals hemizygous for both transgenes. When these mice are maintained on doxycycline (DOX+), expression of the IFN-γ transgene is repressed (FIG. 10A); when the double transgenic mice are released from doxycycline (DOX−) INF-γ is expressed. For the purpose of these experiments, mice received doxycycline up to day 14 of development (E14), at which time the experimental animals (DOX−) stopped receiving doxycycline, while the control animals (DOX+) were continuosly fed the dug. The mRNA for IFN-γ could be detected in the DOX− mice as early as 10 days after birth (data not shown).
Real time PCR analysis was performed to determine the levels of expression of INF-γ, MHC-1, BIP, CHOP, and caspase 12. The primers for the PCR reactions for BIP, CHP and caspase 12 are given in example 1. The sense and antisense primers for INF-γ were […] (SEQ ID NO: 39) and […] (SEQ ID NO: 40), respectively; and the sense and antisense primers for MHC-1 were MHC-I sense primer: ATTCCCCAAAGGCCCATGT (SEQ ID NO: 1); and MHC-I antisense primer: […] (SEQ ID NO: 2).
Western blot analysis was performed on the CNS of 14 day old mice to determine the expression of caspase-12 as described in Example 6.
Brain and spinal cord tissue were analyzed using immunohistochemical methods as follows. Anesthetized mice were perfused through the left cardiac ventricle with 4% paraformaldehyde in 0.1M PBS. The half-saggital brains and transcervical spinal cord were removed, postfixed with paraformaldehyde, cryopreserved in 30% sucrose, embedded in OCT and frozen on dry ice. Frozen sections were cut in a cryostat at a thickness of 10 μm. Coronal sections at the fornix region of the corpus callosum corresponding to Sidman sections 241-251 were selected for use, and all comparative analyses were restricted to midline corpus callosum (Sidman, et al. (1971) Atlas of the Mouse Brain and Spinal Cord (Harvard Univ. Press, Cambridge, Mass.). For immunohistochemistry, frozen sections were treated with −20° C. acetone, blocked with PBS containing 10% NGS and 0.1% Triton X-100 and incubated overnight with the primary antibody diluted in blocking solution. Appropriate fluorochrome- or enzyme-labeled secondary antibodies (Vector Laboratories, Burlingame, Calif.) were used for detection. An antibody against CC1 (APC7, 1:50; EMD Biosciences, Inc., La Jolla, Calif.) was used as a marker for mature oligodendrocytes. Antibody against MBP (1:1000; Stemberger Monoclonals, Lutherville, […].) was used to verify the degree of myelination. Antibody against active-caspase-3 (1:50, Cell signaling Technology, Beverly, Mass.) was used as a marker for apoptotic cells. Fluorescent stained sections were mounted with Vectashield mounting medium with DAPI (Vector Laboratories) and visualized with a Zeiss Axioplan fluorescence microscope. Images were captured using a Photometrics PXL CCD camera connected to an Apple Macintosh computer using the Open Lab software suite. Immunopositive cells were quantified by counting positive cells within the median of the corpus callosum, confined to an area of 0.04 mm^2. Only those cells with nuclei observable by DAPI staining were counted. Each MBP immunostaining slide was scored on a scale of zero to four. A score of zero indicates complete demyelination, and a score of four indicates normal myelination in the corpus callosum of adult mice. […]

Where [1] appears, read: CNS, PND 14, DOX− released at E14, real-time PCR.

Take interferon-γ [IFN-γ]: the caspase-12 expression result (CNS, PND 14, DOX− released at E14) is “strongly enhanced”. Further, under setting [1], the BIP expression entry was “approximately 1.6 times the control levels”. In addition, the CHOP expression under setting [1] was around 2 times the control levels. In addition, the “mice that experienced tonic seizures” value (E14 DOX− PERK+/−) was “approximately two-thirds”. In addition, the “decrease of oligodendrocyte numbers in the spinal cord” value (IFN-γ expressing mice on a PERK+/− background, 14-day-old, CC1) was “more than 50%”. The “unmyelinated axons in the spinal cord” value is 81%±14.9% (PERK+/− mice that express IFN-γ in the CNS, 14-day-old) and 30%±12.9% (wild-type background, released from doxycycline at E14). Moreover, the “number of TUNEL positive oligodendrocytes in the cervical spinal cord, PERK+/− relative to wild-type background” value (released from doxycycline at E14) worked out at 2.5 times. Besides, the “mice that died by post natal day (PND) 27” value (released from doxycycline at E14, PERK+/− background) was “more than 90%”. Further, the survival result (released from doxycycline at E14, wild-type background) is on record as “normal survival”.
